Laboratory results reported in patent US20180369143A1, “METAL COMPLEXED THERAPEUTIC AGENTS AND LIPID-BASED NANOPARTICULATE FORMULATIONS THEREOF” (BRITISH COLUMBIA CANCER AGENCY BRANCH, priority 2015, published 2018).
≈ marks a conversion by molar mass, not a printed value. Entries after “also recorded” stand apart in the source; their conditions may differ.

Key:
U251 (glioblastoma line) = experiment: 72 h cytotoxicity, IN CELL Analyzer, U251 cells; format: cell-based, human
Protocol: The U251MG glioblastoma cell line (formerly known as U-373 MG) was originally obtained from American Type Culture Collection (Manassas, Va.) and was used for a maximum of fifteen passages. […] U87, U251MG^O, A549 and MDA231-BR cells were maintained in DMEM (Gibco) supplemented with 2 mM L-glutamine (Gibco) and 10% fetal bovine serum (Gibco). […] All cells were maintained at 37° C. and 5% CO2 The cells were seeded into 384 well plates and allowed to grow for 24 hrs and then treated as specified for 72 hours. To assess the cytotoxic effects of the indicated compounds in adherent cell lines, the cells were stained with Hoescht 33342 and ethidium homodimer I for total and dead cell counts, respectively. Twenty minutes later, the cells were imaged using an In Cell Analyzer 2200 and cell viability was measured based on viable nuclei count.

[1] = test system: A2780-CP (human ovarian carcinoma, platinum insensitive); experiment: 72 h cytotoxicity, IN CELL Analyzer, A2780-CP cells; format: cell-based
Protocol: (§1) The anticancer activity of clioquinol (CQ) in cancer lines through copper dependent and independent pathways was examined. Both CQ (-●-) and Cu(CQ)2 (-▪-) were dissolved in DMSO and diluted to a final concentration of <0.5% (at higher concentrations (>100 μM) of Cu(CQ)2, precipitated drug could be seen under the microscope). A2780-S (human ovarian carcinoma, platinum sensitive), A2780-CP (human ovarian carcinoma, platinum insensitive) as well as A549 (human lung cancer), U251 (human glioblastoma) cytotoxicity curves (FIG. 22 A-D) were obtained with the IN CELL Analyzer 2200. Cell viability was assessed based on loss of plasma membrane integrity 72 hours following treatment. Total cell count and dead cell count were determined using Hoechst 33342 and ethidium homodimer staining, respectively. The CQ cytotoxicity curve in MV-4-11 (human leukemia) was generated using PrestoBlue reagent to establish cell viability through metabolic activity.

[2] = test system: A2780-S (human ovarian carcinoma, platinum sensitive); experiment: 72 h cytotoxicity, IN CELL Analyzer, A2780-S cells; format: cell-based
Protocol: FIG. 26 Clioquinol metal complex cytotoxicity in A2780-S (ovarian cancer) cells. (A) Cytotoxicity curves for CQ (-●-), Cu(CQ)2 (-▪-) and Zn(CQ)2 (-♦-) were obtained using the INCELL analyzer where viability was assessed based on loss of plasma membrane integrity 72 hours following treatment; i.e., total cell count and dead cell count were determined using Hoechst 33342 and ethidium homodimer staining, respectively. Results are given as mean ±SEM (B) IC50 values of CQ and metal complexes in A2780-S (IC50±95% CI).
as §1, with “The CQ cytotoxicity curve in MV-4-11 (human leukemia) was generated using PrestoBlue reagent to establish cell viability through metabolic activity.” left out

MV-4-11 (leukemia) cells = experiment: 72 h cytotoxicity (PrestoBlue), MV-4-11 cells; format: cell-based, human
Protocol: (§2) For studies with DDC, the cell lines U87, and A549 were obtained from ATCC, HBEpC (Human Bronchial Epithelial Cells) was obtained from Cell Applications (San Deigo, Calif.) and MDA-231-BR was from the NIH/NCI. The U251MG glioblastoma cell line (formerly known as U-373 MG) was originally obtained from American Type Culture Collection (Manassas, Va.) and was used for a maximum of fifteen passages. Subsequently, the U251MG was obtained from Sigma-Aldrich (product number 09063001). […] Both cell lines are now being maintained as separate lines U251MG^O (original line) and U251MG^SA (Sigma-Aldrich). […] Twenty minutes later, the cells were imaged using an In Cell Analyzer 2200 and cell viability was measured based on viable nuclei count. For the suspension cell line MV-4-11, cells were incubated with the PrestoBlue reagent (Life Technologies) at 37° C. and 5% CO2 for 1 hour, after which cell viability was evaluated based on metabolic activity as measured with the FLUOstar OPTIMA microplate reader (BMG Labtech). […]
(§3) The anticancer activity of clioquinol (CQ) in cancer lines through copper dependent and independent pathways was examined. […] Cell viability was assessed based on loss of plasma membrane integrity 72 hours following treatment. Total cell count and dead cell count were determined using Hoechst 33342 and ethidium homodimer staining, respectively. […]

A549 (lung cancer line) = experiment: 72 h cytotoxicity, A549 cells; format: cell-based, human
Protocol: For studies with DDC, the cell lines U87, and A549 were obtained from ATCC, HBEpC (Human Bronchial Epithelial Cells) was obtained from Cell Applications (San Deigo, Calif.) and MDA-231-BR was from the NIH/NCI. The U251MG glioblastoma cell line (formerly known as U-373 MG) was originally obtained from American Type Culture Collection (Manassas, Va.) and was used for a maximum of fifteen passages. Subsequently, the U251MG was obtained from Sigma-Aldrich (product number 09063001). […] Both cell lines are now being maintained as separate lines U251MG^O (original line) and U251MG^SA (Sigma-Aldrich). […] Twenty minutes later, the cells were imaged using an In Cell Analyzer 2200 and cell viability was measured based on viable nuclei count. For the suspension cell line MV-4-11, cells were incubated with the PrestoBlue reagent (Life Technologies) at 37° C. and 5% CO2 for 1 hour, after which cell viability was evaluated based on metabolic activity as measured with the FLUOstar OPTIMA microplate reader (BMG Labtech).
as §3

[3] = Plasma elimination of CX5461, free versus liposomal; format: in vivo; details: within 1 hour of injection
Protocol: Cu(DDC)2 was measured by using Cu as a surrogate marker. Samples were diluted in 0.1% HNO3 and subsequently the Cu concentration was measured using AAS (AAnalyst600, Perkin Elmer) as described above. Plasma Cu was corrected using untreated CD-1 mouse plasma as a blank. […] All other compounds were measured using HPLC as summarized below using a Waters Alliance HPLC Module 2695 and photodiode array detector model 996 and Empower 2 Software. […] Similarly, the quantification of CX5461 was performed in acidified methanol to dissociate the complex and CX5461 was measured at 300 nm following separation on a Luna C18 column (5 μm, 4.6×150 mm). The mobile phase contained a 1:1.2 mixture of 0.1% TFA in water and 0.1% TFA in methanol. A 5 μL sample volume was injected, the flow rate was set at 1 mL/min and the column temperature was 35° C.

[4] = test system: H460 (non-small cell lung cancer); experiment: 72-hour cytotoxicity assay, H460 cells; format: cell-based
[5] = test system: MV-4-11, HCT116WT, HCT116B18 and HCT116B46 cells; experiment: Cytotoxicity IC50 comparison of CX5461 with metal salts in a cell panel; format: cell-based
Protocol: as §2, with “(Sigma-Aldrich). U87, U251MG^O, A549 and MDA231-BR cells were maintained in DMEM (Gibco) supplemented with 2 mM L-glutamine (Gibco) and 10% fetal bovine serum (Gibco). HBEpC were grown in bronchial/tracheal epithelial growth medium obtained from Cell Applications and were used for a maximum of three passages.” for “(Sigma-Aldrich).”

[6] = Aqueous solubility of metal complexes (qualitative); format: physicochemical
[7] = test system: normal human bronchial epithelial cells HBEpC; experiment: 72 h cytotoxicity, normal bronchial epithelial cells; format: cell-based
Protocol: (§4) For studies with DDC, the cell lines U87, and A549 were obtained from ATCC, HBEpC (Human Bronchial Epithelial Cells) was obtained from Cell Applications (San Deigo, Calif.) and MDA-231-BR was from the NIH/NCI. The U251MG glioblastoma cell line (formerly known as U-373 MG) was originally obtained from American Type Culture Collection (Manassas, Va.) and was used for a maximum of fifteen passages. Subsequently, the U251MG was obtained from Sigma-Aldrich (product number 09063001). […] Both cell lines are now being maintained as separate lines U251MG^O (original line) and U251MG^SA (Sigma-Aldrich). U87, U251MG^O, A549 and MDA231-BR cells were maintained in DMEM (Gibco) supplemented with 2 mM L-glutamine (Gibco) and 10% fetal bovine serum (Gibco). HBEpC were grown in bronchial/tracheal epithelial growth medium obtained from Cell Applications and were used for a maximum of three passages. […] Twenty minutes later, the cells were imaged using an In Cell Analyzer 2200 and cell viability was measured based on viable nuclei count. For the suspension cell line MV-4-11, cells were incubated with the PrestoBlue reagent (Life Technologies) at 37° C. and 5% CO2 for 1 hour, after which cell viability was evaluated based on metabolic activity as measured with the FLUOstar OPTIMA microplate reader (BMG Labtech).

[8] = test system: MDA-231BR (triple negative breast cancer line); experiment: 72 h cytotoxicity, IN CELL Analyzer, MDA-231BR cells; format: cell-based; details: copper+DDC
Protocol: as §4

U87 glioblastoma cells = experiment: cells; format: cell-based; details: for IC50: Homo sapiens, U-87 MG, absence of copper, 72 h
Protocol: For studies with DDC, the cell lines U87, and A549 were obtained from ATCC, HBEpC (Human Bronchial Epithelial Cells) was obtained from Cell Applications (San Deigo, Calif.) and MDA-231-BR was from the NIH/NCI. The U251MG glioblastoma cell line (formerly known as U-373 MG) was originally obtained from American Type Culture Collection (Manassas, Va.) and was used for a maximum of fifteen passages. Subsequently, the U251MG was obtained from Sigma-Aldrich (product number 09063001). […] Both cell lines are now being maintained as separate lines U251MG^O (original line) and U251MG^SA (Sigma-Aldrich). U87, U251MG^O, A549 and MDA231-BR cells were maintained in DMEM (Gibco) supplemented with 2 mM L-glutamine (Gibco) and 10% fetal bovine serum (Gibco). HBEpC were grown in bronchial/tracheal epithelial growth medium obtained from Cell Applications and were used for a maximum of three passages. All cells were maintained at 37° C. and 5% CO2 The cells were seeded into 384 well plates and allowed to grow for 24 hrs and then treated as specified for 72 hours. To assess the cytotoxic effects of the indicated compounds in adherent cell lines, the cells were stained with Hoescht 33342 and ethidium homodimer I for total and dead cell counts, respectively. Twenty minutes later, the cells were imaged using an In Cell Analyzer 2200 and cell viability was measured based on viable nuclei count. For the suspension cell line MV-4-11, cells were incubated with the PrestoBlue reagent (Life Technologies) at 37° C. and 5% CO2 for 1 hour, after which cell viability was evaluated based on metabolic activity as measured with the FLUOstar OPTIMA microplate reader (BMG Labtech).
Cytotoxicity results were obtained with an IN CELL™ Analyzer in U87 glioblastoma cells. Cell viability was assessed based on detection of plasma membrane integrity 72 hours following treatment. Total and dead cell counts were determined using Hoeschst 33342 and ethidium homodimer staining.

[9] = Solubility of quercetin in water and HEPES buffer saline; format: physicochemical
Protocol: (or 22° C.) for 60 minutes in 2 mL of the respective buffers. […] The time points for dissolution were 5, 10, 15, 30 and 60 minutes.
(38 μg/mL). A supersaturated solution of quercetin-HBS remained stable over a one-hour period once removed from heat.

With `Oc1c(I)cc(Cl)c2cccnc12` [CQ, Clioquinol] the “copper dependence of CQ activity” value (U251 (glioblastoma line)) was “copper independent”, the “copper dependence of CQ activity” value [1] was “copper dependant” and the “copper dependence of CQ activity” value [2] was “copper dependant”. The “copper dependence of CQ activity” value (MV-4-11 (leukemia) cells) was “copper independent” and the “copper dependence of CQ activity” value (A549 (lung cancer line)) was “copper dependant”.

For `Cc1cnc(CNC(=O)c2c(=O)c3ccc(N4CCCN(C)CC4)nc3n3c2sc2ccccc23)cn1` [CX5461], the “compound removed from circulation” value [3] was 96%, the “effect of equimolar copper on anti-cancer activity” value [4] was “does not alter” and the “activity (IC50) versus low pH preparation of metal-free compound” value ([5]; combined with CuSO4, dissolution at pH 7.4) was “statistically similar”. The “activity (IC50) versus low pH preparation of metal-free compound” value ([5]; combined with ZnSO4, dissolution at pH 7.4) was “statistically similar” and the “effect of equimolar copper on anti-cancer activity” value (MV-4-11 (leukemia) cells; 72 h) was “does not alter”.

With `CCN(CC)C(=S)[S-].CCN(CC)C(=S)[S-].[Cu+2]` [Cu(DDC)2] the “solubility in water / aqueous solution” value [6] was “highly insoluble; also recorded: almost completely insoluble”, the IC50 (U251 (glioblastoma line); copper+DDC) was 0.345 µM and the “activity against normal cells” value [7] was “little activity”. The IC50 [8] was 0.329 µM and the IC50 (A549 (lung cancer line); copper+DDC) was 0.88 µM.

In the case of `CCN(CC)C(=S)S` [DDC, Diethyldithiocarbamate], the IC50 (U87 glioblastoma cells) is reported as greater than 10 µM.

For `CCN(CC)C(=S)SSC(=S)N(CC)CC` [DSF, Disulfiram], the “shift in cytotoxicity in the presence of copper” value (U87 glioblastoma cells) was 2 orders of magnitude and the IC50 (U87 glioblastoma cells) was greater than 10 µM.

For `O=c1c(O)c(-c2ccc(O)c(O)c2)oc2cc(O)cc(O)c12` [quercetin, Quercetin], the solubility at 60 min ([9]; 60 °C, water, thermodynamic from solid) was 0.0123 mg/mL (≈ 40.8 µM), the solubility ([9]; 60 min) was 0.038 mg/mL (≈ 126 µM) and the solubility ([9]; HBS, room temperature) was 0.00778 mg/mL (≈ 25.7 µM).
